Source: US10927104B2, “Ether compounds and uses thereof” (BioTheryX, Inc., priority 2017, dated 2021)

Assays:
Type in all cases: cell-based
IL-1β = test: PBMC assay, LPS-induced IL-1β (Meso Scale); details: Homo sapiens, PBMCs, 100 ng/mL LPS 18-24 hrs; for inhibition at 0.1 µM: compound at 0.1 μM; for inhibition at 1 µM: compound at 1 μM; for inhibition at 10 µM: compound at 10 μM
Protocol: (§1) FIG. 1 represents the activity against IL-1-beta in peripheral blood mononuclear cells (PBMCs), plated in 96 well plates and pretreated with compound for 1 hour and then induced with 100 ng/mL LPS for 18-24 hrs. Cytokines in the media were measured according to MesoScale protocol. Negative control wells were treated with DMSO. Compound activity is measured as a percentage of LPS-induced activity.
(§2) Frozen primary blood mononuclear cells (PBMCs) were purchased from AllCells. Cells were quick thawed, washed once with RPMI-1640/10% FBS.
(§3) 1% Penicillin/1% Streptomycin and plated in 96 well plates at 200,000 cells per well. Cells were pretreated with DMSO only, or Compound 1 for 1 hour and then induced with 100 ng/mL lipopolysaccharide (LPS) for 18-24 hrs. The supernatant was analyzed for IL-1 beta, IL-6, and TNFα, using Meso Scale assay according to manufacturer's protocol. The negative control wells were treated with DMSO.
(§4) Compound activity was measured as fold difference from the DMSO control. IL-1β activity is shown in FIG. 1; IL-6 activity is shown in FIG. 2; TNFα activity is shown in FIG. 3; and IL-2 activity is shown in FIG. 4. Additional data for compounds (shown as percent inhibition) at 10 μM is shown in Table 1; at 1 μM in Table 2; and at 0.1 μM in Table 3.

IL-6 = test: PBMC assay, LPS-induced IL-6 (Meso Scale); details: Homo sapiens, PBMCs, 100 ng/mL LPS 18-24 hrs; for inhibition at 0.1 µM: compound at 0.1 μM; for inhibition at 1 µM: compound at 1 μM; for inhibition at 10 µM: compound at 10 μM
Protocol: as §1, with “FIG. 2” for “FIG. 1”, “against IL-6” for “against IL-1-beta”, “Cytokines” for “Cytokines in the media”, “activity was” for “activity is”
as §2, §3, §4

TNFα = test: PBMC assay, LPS-induced TNFα (Meso Scale); details: Homo sapiens, PBMCs, 100 ng/mL LPS 18-24 hrs; for inhibition at 0.1 µM: compound at 0.1 μM; for inhibition at 1 µM: compound at 1 μM; for inhibition at 10 µM: compound at 10 μM
Protocol: as §1, with “FIG. 3” for “FIG. 1”, “against TNFα” for “against IL-1-beta”, “protocol. The negative” for “protocol. Negative”
as §2, §3, §4

IL-2 = test: Anti-CD3-induced IL-2 secretion in PBMCs (Mesoscale); details: Homo sapiens, PBMC, anti-CD3 stimulated PBMCs, 24 hr, vs DMSO control, read-out: IL-2 Fold Change; for fold induction at 0.1 µM: compound at 0.1 μM; for fold induction at 1 µM: compound at 1 μM; for fold induction at 10 µM: compound 10 μM
Protocol: FIG. 4 represents Anti-CD3-induced IL-2 secretion in PBMCs. 1 μg/mL anti-CD3 (OKT-3) antibody in PBS coated onto 96-well plates overnight at 4° C. Approximately, 550,000 PBMCs were added to each well, followed by addition of DMSO only (control) or Compound 1. Induction was measured after 24 hrs as fold difference from the DMSO stimulated control.
as §2
For the IL-2 analysis, 96 well plates were precoated with 1 μg/mL anti-human CD3 antibody (OKT3, eBioscience Inc.). After washing with PBS, Compound 1 was added (50 μL/well) followed by PBMCs diluted at 3-4 million cells/mL (150 μL/well). Plates were incubated for 24 hr and the supernatants collected for Mesoscale IL-2 analysis.
as §4

Molm-13 cells = test: Cell viability assay (CellTiter-Glo), Molm-13 proliferation; details: Homo sapiens, MOLM-13, 72 h, 3 days; for inhibition at 1 µM: compound at 1 μM; for inhibition at 10 µM: compound at 10 μM
Protocol: (§5) Molm-13 and MV-4-11 cells were cultivated in RPMI-1640 (10% FBS/1% pen-strep) and were plated in white walled 96-well plates at 20,000 cells/well.
(§6) Cells were treated with compound at the indicated concentration or DMSO (control) and the cultures were incubated for 3 days at 37° C. and 5% CO2. Following the incubation period, 100 μL of CellTiterGlow (CTG) reagent (CellTiter-Glo® Luminescent Cell Viability Assay, Promega (Madison, Wis.)) was added to each well. Following a 10 min incubation with shaking, luminescence was measured using a Victor Wallac Luminometer.

MV-4-11 cells = test: Cell viability assay (CellTiter-Glo), MV-4-11 proliferation; details: Homo sapiens, MV4-11, 72 h, 3 days; for inhibition at 1 µM: compound at 1 μM; for inhibition at 10 µM: compound at 10 μM
Protocol: as §5, §6

Row | Compound | inhibition at 0.1 µM (IL-1β) | inhibition at 1 µM (IL-1β) | inhibition at 0.1 µM (IL-6) | inhibition at 1 µM (IL-6) | inhibition at 0.1 µM (TNFα) | inhibition at 1 µM (TNFα) | fold induction at 0.1 µM (IL-2) | fold induction at 1 µM (IL-2) | inhibition at 0.1 µM (Molm-13 cells; compound at 0.1 μM) | inhibition at 1 µM (Molm-13 cells) | inhibition at 10 µM (Molm-13 cells) | inhibition at 1 µM (MV-4-11 cells) | inhibition at 10 µM (MV-4-11 cells) | inhibition at 10 µM (IL-1β) | inhibition at 10 µM (IL-6) | inhibition at 10 µM (TNFα) | fold induction at 10 µM (IL-2)
1 | O=C1CCC[C@H](N2Cc3c(OCc4ccc(CN5CCOCC5)cc4)cccc3C2=O)C(=O)N1 [Compound 1, (S)-3-(4-((4-(morpholinomethyl)benzyl)oxy)-1-oxoisoindolin-2-yl)azepane-2,7-dione] | 83% | 88% | 63% | 71% | 89% | 93% | 2.1 | 0.8 | 30% | 15% | 37% | 2% | 5% | – | – | – | –
2 | O=C1CCC[C@H](N2Cc3c(OCc4ccc(CN5CCOc6ccccc65)cc4)cccc3C2=O)C(=O)N1 [Compound 2, (S)-3-(4-((4-((2,3-dihydro-4H-benzo[b][1,4]oxazin-4-yl)methyl)benzyl)oxy)-1-oxoisoindolin-2-yl)azepane-2,7-dione] | 72% | 86% | 43% | 67% | 81% | 90% | 1.3 | 2.3 | – | 5% | 30% | 6% | 16% | – | – | – | –
3 | O=C1CCC[C@H](N2Cc3c(OCc4ccc(CN5CCOCC5)c(Cl)c4)cccc3C2=O)C(=O)N1 [Compound 3] | 91% | 93% | 72% | 79% | 91% | 93% | 2 | 0.7 | – | 1% | 29% | 0% | 20% | 93% | 77% | 94% | –
4 | O=C1CCC[C@H](N2Cc3c(OCc4ccc(C5CCNCC5)cc4)cccc3C2=O)C(=O)N1 [Compound 4] | 72% | 86% | 43% | 67% | 81% | 90% | 1.3 | 2.3 | – | – | – | 0% | 0% | – | – | – | –
5 | NCc1ccc(COc2cccc3c2CN([C@H]2CCCC(=O)NC2=O)C3=O)cc1 [Compound 5, trifluoroacetic acid] | 64% | – | 37% | – | 55% | – | 1.2 | 2.1 | – | – | 40% | 1% | 3% | – | – | – | –
6 | O=C1CCC[C@H](N2Cc3c(OCc4ccc(CN5CCOCC5)cc4)cc(F)cc3C2=O)C(=O)N1 [Compound 7] | 71% | – | 55% | – | 62% | – | 1 | 1.1 | – | – | – | 0% | 0% | – | – | – | –
7 | O=C1CCC[C@H](N2C(=O)c3cccc(OCc4ccc(CN5CCOCC5)cc4)c3C2=O)C(=O)N1 [Compound 11] | 21% | – | 12% | – | 21% | – | 1.2 | 1.9 | – | – | – | 0% | 0% | – | – | – | –
8 | O=C1CCC[C@H](N2Cc3cc(OCc4ccc(CN5CCOCC5)cc4)ccc3C2=O)C(=O)N1 [Compound 15] | – | 59% | – | 10% | – | 65% | – | 1.9 | – | – | – | 38% | 99% | 81% | 50% | 87% | 2.1
9 | O=C1COC[C@H](N2Cc3c(OCc4ccc(CN5CCOCC5)cc4)cccc3C2=O)C(=O)N1 [Compound 16] | – | 24% | – | 5% | – | 27% | – | 0.7 | – | – | – | 0% | 99% | 52% | 78% | 75% | 0.2
10 | Cc1cnc(Nc2ccc(OCCCNCC(=O)NCc3ccc(COc4cccc5c4CN(C4CCC(=O)NC4=O)C5=O)cc3)cc2)nc1Nc1cccc(S(=O)(=O)NC(C)(C)C)c1 (stereo not shown) [Compound 17] | – | 75% | – | 35% | – | 75% | – | 1.5 | – | – | – | 31% | 98% | 100% | 100% | 100% | 0.1
11 | N#Cc1ccc2c(c1OCc1ccc(CN3CCOCC3)cc1)CN([C@H]1CCCC(=O)NC1=O)C2=O [Compound 19, 2-[(S)-2,7-Dioxo-3-azepanyl]-4-{[p-(morpholinomethyl)phenyl]methoxy}-1-oxo-5-isoindolinecarbonitrile] | 22% | 65% | 12% | 43% | 41% | 73% | 1.5 | 2.4 | – | – | – | 0% | 0% | – | – | – | –
12 | Cc1cnc(Nc2ccc(OCCCNCC(=O)NCc3ccc(COc4cc(F)cc5c4CN([C@H]4CCCC(=O)NC4=O)C5=O)cc3)cc2)nc1Nc1cccc(S(=O)(=O)NC(C)(C)C)c1 [Compound 21] | – | 6% | – | 8% | – | 20% | – | 0.9 | – | – | – | 0% | 97% | 11% | 7% | 30% | 1
13 | Cc1cnc(Nc2ccc(OCCCNCC(=O)NCc3ccc(COc4cccc5c4CN([C@H]4CCC(=O)NC4=O)C5=O)cc3)cc2)nc1Nc1cccc(S(=O)(=O)NC(C)(C)C)c1 [Compound 24] | – | 7% | – | 9% | – | 10% | – | 1 | – | – | – | 44% | 80% | 23% | 1% | 23% | 1
14 | Cc1cnc(Nc2ccc(OCCCNCC(=O)NCc3ccc(COc4cc(F)cc5c4CN([C@H]4CCC(=O)NC4=O)C5=O)cc3)cc2)nc1Nc1cccc(S(=O)(=O)NC(C)(C)C)c1 [Compound 25] | 0% | 8% | 3% | 32% | 13% | 25% | 0.9 | 1 | – | – | – | 54% | 90% | – | – | – | –
